{
  "source": "patent US20060276534A1",
  "about": "“Methods of decreasing calcification” (Amgen Inc., priority 2005, published 2006)",
  "key": {"5/6 Nx rats [1]": {"tested_on": "5/6 Nx rats", "assay": "Ca and P content of thoracic aorta in 5/6 Nx rats given paricalcitol and/or Compound B (Example 3)", "format": "in vivo, rat", "source_text": "Wistar rats (200-250g), fed a 0.6% Ca and 1.2% P diet, were 5/6 nephrectomized (5/6 Nx) or sham-operated (sham)."}, "5/6 Nx rats [2]": {"tested_on": "5/6 Nx rats", "assay": "Serum PTH, ionized Ca, P and creatinine in 5/6 Nx rats given paricalcitol and/or Compound B (Example 3)", "conditions": "14 days"}, "5/6 Nx rats [3]": {"tested_on": "5/6 Nx rats", "assay": "Soft tissue mineralization by Von Kossa staining in 5/6 Nx rats (Example 4)", "format": "in vivo, rat", "conditions": "14 days", "source_text": "Wistar rats (200-250g), fed a 0.6% Ca and 1.2% P diet, were 5/6 nephrectomized (5/6 Nx)."}, "adenine-induced CKD rats [4]": {"tested_on": "adenine-induced CKD rats", "assay": "Parathyroid hyperplasia (PCNA immunohistochemistry, parathyroid weight) in adenine-induced CKD model", "format": "in vivo, rat", "conditions": "adenine diet rats, vs vehicle", "source_text": "(§1) Male Sprague-Dawley rats (Charles River Laboratories) weighing 300-350 grams were used in these studies. All animals received standard lab chow (Harlan Teklad, Madison, Wis.) prior to the start of the studies. The standard lab chow was changed to a standard rodent lab chow that contained 0.75% adenine. Animals received food and water ad libitum. The animal protocol was approved by the Institutional Animal Care and Use Committee of Amgen Inc. (Thousand Oaks, Calif.).\n(§2) Animals were fed the adenine containing chow for 21 days, and prior to the start of the adenine diet animals were pre-bleed for baseline measurements of ionized calcium, PTH, BUN and creatinine and phosphorus levels (FIG. 9).\n(§3) Prior to placing animals on an adenine diet or administration of Compound B or vehicle baseline determininations of serum P, Ca, BUN, PTH and creatinine were performed. […] For measurement of blood ionized calcium levels, blood was collected from the abdominal aorta under anesthesthia (2% isofluorane in O2), prior to sacrifice, with heparinized capillary tubes and analyzed using a Ciba-Corning 634 ISE Ca^++/pH Analyzer (Ciba-Corning Diagnostics Corp, Medfield, Mass.). […] PTH levels were quantified according to the vendor's instructions using a rat PTH(1-34) immunoradiometric assay kit (Immutopics, San Clemente, CA). […]"}, "adenine-induced CKD rats [5]": {"tested_on": "adenine-induced CKD rats", "assay": "PTH and serum chemistry profile in adenine-induced CKD model with vascular calcification", "format": "in vivo, rat", "conditions": "adenine diet rats, Compound B 3 mg/kg p.o. daily 21 days, vs vehicle", "source_text": "as §1, §2\nPrior to placing animals on an adenine diet or administration of Compound B or vehicle baseline determininations of serum P, Ca, BUN, PTH and creatinine were performed. Blood was removed from the orbital sinus under while the rats were under anesthetisa (2% isoflurane in O2). After the time 0 bleed, animals were placed on the adenine containing chow and were administered Compound B at 3 mg/kg p.o. or vehicle (12% captisol in water) daily for 21 days. At the end of the study (day 21) animals were sacrificed and the aorta and parathyroid glands were removed for histopathological analysis. Blood was removed for blood chemistries and PTH determinations. For measurement of blood ionized calcium levels, blood was collected from the abdominal aorta under anesthesthia (2% isofluorane in O2), prior to sacrifice, with heparinized capillary tubes and analyzed using a Ciba-Corning 634 ISE Ca^++/pH Analyzer (Ciba-Corning Diagnostics Corp, Medfield, Mass.). Separately, blood was collected for PTH, blood urea nitrogen (BUN), creatinine, and serum phosphorus levels into SST (clot activator) brand blood tubes (BD, Franklin Lakes, N.J.) and allowed to clot. Serum was removed and stored at −70° C. until assayed. PTH levels were quantified according to the vendor's instructions using a rat PTH(1-34) immunoradiometric assay kit (Immutopics, San Clemente, CA). BUN, creatinine, and phosphorus levels were determined using a blood chemistry analyzer (Olympus AU 400, Melville, N.Y.)."}, "adenine-induced CKD rats [6]": {"tested_on": "adenine-induced CKD rats", "assay": "Aortic vascular calcification by bone mineral density (PIXImus) in adenine-induced CKD model", "format": "in vivo, rat", "conditions": "adenine diet rats; Compound B 3 mg/kg p.o. daily 21 days, compared to vehicle on the same diet", "source_text": "as §1\nas §3, with “performed. Blood was removed from the orbital sinus under while the rats were under anesthetisa (2% isoflurane in O2).” for “performed.”, “CA). BUN, creatinine, and phosphorus levels were determined using a blood chemistry analyzer (Olympus AU 400, Melville, N.Y.).” for “CA).”"}, "[7]": {"conditions": "5/6 Nx rats, 14 days, compared to vehicle treated 5/6 Nx animals (Compound B also vs sham)"}, "[8]": {"conditions": "Compound B administered to paricalcitol treated 5/6 Nx rats, compared to 5/6 Nx rats treated with paricalcitol"}, "[9]": {"conditions": "thoracic aorta, 5/6Nx rats, 14 days, paricalcitol 240 ng/kg every 48 hr ip, Compound B 1.5 mg/kg every 48 hr sc"}, "[10]": {"conditions": "5/6 Nx rats, compared to 5/6 Nx+vehicle"}, "[11]": {"conditions": "5/6Nx rats, paricalcitol 240 ng/kg every 48 hr ip, Compound B 1.5 mg/kg every 48 hr sc"}, "[12]": {"conditions": "serum, 5/6Nx rats, paricalcitol 240 ng/kg every 48 hr ip, Compound B 1.5 mg/kg every 48 hr sc"}, "[13]": {"conditions": "Compound B 1.5 mg/kg every 48 hr sc to calcitriol-treated 5/6 Nx rats"}},
  "data": [
    {"smiles": "COc1ccc(CNC(C)c2ccccc2)cc1-c1ccc(C(F)(F)F)cc1", "note": "(stereo not drawn) [Compound B, N-((6-(methyloxy)-4′-(trifluoromethyl)-1,1′-biphenyl-3-yl)methyl)-1-phenylethanamine]", "values": [
      {"measurement": "Aortic Ca content, change in words", "setting": "5/6 Nx rats [1]; [7]", "result": "did not significantly change"},
      {"measurement": "Aortic P content, change in words", "setting": "5/6 Nx rats [1]; [7]", "result": "did not significantly change"},
      {"measurement": "Aortic Ca content, change in words", "setting": "5/6 Nx rats [1]; [8]", "result": "significantly (p<0.05) reduced"},
      {"measurement": "Aortic P content, change in words", "setting": "5/6 Nx rats [1]; [8]", "result": "significantly (p<0.05) reduced"},
      {"measurement": "Aortic Ca", "setting": "5/6 Nx rats [1]; [9]", "result": "2.6 ± 0.16", "unit": "mg/g"},
      {"measurement": "Aortic P", "setting": "5/6 Nx rats [1]; [9]", "result": "0.33 ± 0.05", "unit": "mg/g"},
      {"measurement": "Blood ionized calcium, change in words", "setting": "5/6 Nx rats [2]; [10]", "result": "no changes"},
      {"measurement": "Creatinine, change in words", "setting": "5/6 Nx rats [2]; [10]", "result": "no changes"},
      {"measurement": "Serum P levels, change in words", "setting": "5/6 Nx rats [2]; [10]", "result": "no changes"},
      {"measurement": "Serum PTH levels, change in words", "setting": "5/6 Nx rats [2]; [10]", "result": "significantly (p<0.05) decreased"},
      {"measurement": "Creatinine", "setting": "5/6 Nx rats [2]; [11]", "result": "0.98 ± 0.1", "unit": "mg/dL"},
      {"measurement": "Ionized Ca", "setting": "5/6 Nx rats [2]; [11]", "result": "0.93 ± 0.06", "unit": "mM"},
      {"measurement": "P", "setting": "5/6 Nx rats [2]; [12]", "result": "9.5 ± 1.5", "unit": "mg/dL"},
      {"measurement": "PTH", "setting": "5/6 Nx rats [2]; [12]", "result": "45 ± 1.8", "unit": "pg/mL"},
      {"measurement": "Heart mineralization (Von Kossa staining)", "setting": "5/6 Nx rats [3]; [13]", "result": "reduced"},
      {"measurement": "Kidney mineralization (Von Kossa staining)", "setting": "5/6 Nx rats [3]; [13]", "result": "reduced"},
      {"measurement": "Lung mineralization (Von Kossa staining)", "setting": "5/6 Nx rats [3]; [13]", "result": "reduced"},
      {"measurement": "Kidney mineralization (Von Kossa staining)", "setting": "5/6 Nx rats [3]; Compound B 1.5 mg/kg every 48 hr sc to paricalcitol-treated 5/6 Nx rats", "result": "reduced"},
      {"measurement": "Number of PCNA-positive cells (parathyroid)", "setting": "adenine-induced CKD rats [4]; Compound B 3 mg/kg p.o. daily 3 weeks", "result": "significantly (p<0.01) reduced"},
      {"measurement": "Parathyroid weights", "setting": "adenine-induced CKD rats [4]; Compound B 3 mg/kg p.o. daily 21 days", "result": "significantly decreased"},
      {"measurement": "Serum P levels", "setting": "adenine-induced CKD rats [5]", "result": "no significant (p>0.05) treatment effect"},
      {"measurement": "Serum PTH levels", "setting": "adenine-induced CKD rats [5]; p<0.0001", "result": "significantly reduced"},
      {"measurement": "Creatinine levels", "setting": "adenine-induced CKD rats [5]; p<0.05", "result": "decrease"},
      {"measurement": "Total serum calcium", "setting": "adenine-induced CKD rats [5]; p=0.0001", "result": "significantly reduced"},
      {"measurement": "Serum ionized calcium (iCa)", "setting": "adenine-induced CKD rats [5]; p=0.004", "result": "significantly reduced"},
      {"measurement": "Blood urea nitrogen (BUN)", "setting": "adenine-induced CKD rats [5]; p>0.05", "result": "no significant treatment effect"},
      {"measurement": "Reduction aortic bone mineral density", "setting": "adenine-induced CKD rats [6]", "result": 75, "unit": "%"}
    ]}
  ]
}
